For test [1], the target named is T1, Cholinesterase (Homo sapiens, UniProt P06276). In words: Inhibition of BChE (unknown origin) using thiocholine as substrate preincubated for 15 mins followed by substrate addition measured after 5 mins by Ellman's method. Background: DTNB colorimetry detects thiols as they appear.
Test [2] concerns the target Acetylcholinesterase (Electrophorus electricus) (UniProt O42275). The test can be described thus: Inhibition of electric eel AChE at 0.1 mg/ml using acetylthiocholine as substrate preincubated for 15 mins followed by substrate addition measured after 5 mins by Ellman's method.
For another test, the target named is Acetylcholinesterase (Electrophorus electricus, UniProt O42275). In words: Inhibition of electric eel AChE using acetylthiocholine as substrate preincubated for 15 mins followed by substrate addition measured after 5 mins by Ellman's method.
Test [3] in a line: Selectivity ratio of IC50 for BChE (unknown origin) to IC50 for electric eel AChE.
Test [4] concerns the target Acetylcholinesterase (Electrophorus electricus) (UniProt O42275). In words: Potency index, ratio of galantamine IC50 to compound IC50 for inhibition of electric eel AChE.
Test [5] addresses T1, Cholinesterase. The test can be described thus: Potency index, ratio of galantamine IC50 to compound IC50 for inhibition of BChE (unknown origin).
Test [6] addresses T1, Cholinesterase. In words: Inhibition of BChE (unknown origin) at 0.1 mg/ml using thiocholine as substrate preincubated for 15 mins followed by substrate addition measured after 5 mins by Ellman's method.

Active and inactive are the calls of the source. The rule behind the calls is not given here. Where only a bound is given, the exact number is not on record here.

One may read the IC50 as the midpoint of a concentration-inhibition curve. The low end stands for greater potency, the high end for weaker potency.

T1 sequence (P06276 whole entry): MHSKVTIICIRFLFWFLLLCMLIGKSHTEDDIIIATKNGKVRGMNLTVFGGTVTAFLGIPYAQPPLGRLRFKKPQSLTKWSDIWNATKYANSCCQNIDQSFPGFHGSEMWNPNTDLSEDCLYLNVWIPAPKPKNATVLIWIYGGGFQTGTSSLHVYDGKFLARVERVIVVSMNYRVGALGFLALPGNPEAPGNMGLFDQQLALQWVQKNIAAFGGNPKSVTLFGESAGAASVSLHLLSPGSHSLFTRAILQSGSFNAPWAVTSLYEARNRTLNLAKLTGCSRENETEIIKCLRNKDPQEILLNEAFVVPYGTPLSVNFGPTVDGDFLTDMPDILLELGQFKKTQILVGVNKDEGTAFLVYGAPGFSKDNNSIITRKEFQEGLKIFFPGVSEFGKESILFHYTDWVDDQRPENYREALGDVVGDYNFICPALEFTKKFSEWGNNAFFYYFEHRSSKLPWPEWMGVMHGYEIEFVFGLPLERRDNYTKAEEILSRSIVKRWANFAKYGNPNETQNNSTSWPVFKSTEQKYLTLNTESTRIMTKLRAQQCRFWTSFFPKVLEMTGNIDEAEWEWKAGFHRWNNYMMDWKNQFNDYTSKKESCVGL
Sequence of Acetylcholinesterase (O42275 whole entry): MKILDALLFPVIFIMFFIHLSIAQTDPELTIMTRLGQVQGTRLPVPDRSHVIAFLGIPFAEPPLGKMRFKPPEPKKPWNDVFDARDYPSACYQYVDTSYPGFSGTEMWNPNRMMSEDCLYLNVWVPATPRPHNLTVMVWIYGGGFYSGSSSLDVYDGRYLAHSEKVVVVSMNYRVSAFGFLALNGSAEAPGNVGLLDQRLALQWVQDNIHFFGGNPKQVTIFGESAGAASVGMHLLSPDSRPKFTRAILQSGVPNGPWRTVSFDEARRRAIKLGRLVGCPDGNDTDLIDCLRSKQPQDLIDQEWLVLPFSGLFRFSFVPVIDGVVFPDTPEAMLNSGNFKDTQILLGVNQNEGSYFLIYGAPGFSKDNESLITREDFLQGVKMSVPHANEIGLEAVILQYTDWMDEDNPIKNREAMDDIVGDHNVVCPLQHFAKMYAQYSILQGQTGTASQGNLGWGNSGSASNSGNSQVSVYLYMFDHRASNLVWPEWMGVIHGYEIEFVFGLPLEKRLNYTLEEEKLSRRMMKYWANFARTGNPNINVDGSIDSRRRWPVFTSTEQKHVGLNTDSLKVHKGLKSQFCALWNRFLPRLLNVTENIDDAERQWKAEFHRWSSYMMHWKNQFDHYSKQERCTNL
Sequence of Acetylcholinesterase (Electrophorus electricus) (O42275 24-633 limits assumed): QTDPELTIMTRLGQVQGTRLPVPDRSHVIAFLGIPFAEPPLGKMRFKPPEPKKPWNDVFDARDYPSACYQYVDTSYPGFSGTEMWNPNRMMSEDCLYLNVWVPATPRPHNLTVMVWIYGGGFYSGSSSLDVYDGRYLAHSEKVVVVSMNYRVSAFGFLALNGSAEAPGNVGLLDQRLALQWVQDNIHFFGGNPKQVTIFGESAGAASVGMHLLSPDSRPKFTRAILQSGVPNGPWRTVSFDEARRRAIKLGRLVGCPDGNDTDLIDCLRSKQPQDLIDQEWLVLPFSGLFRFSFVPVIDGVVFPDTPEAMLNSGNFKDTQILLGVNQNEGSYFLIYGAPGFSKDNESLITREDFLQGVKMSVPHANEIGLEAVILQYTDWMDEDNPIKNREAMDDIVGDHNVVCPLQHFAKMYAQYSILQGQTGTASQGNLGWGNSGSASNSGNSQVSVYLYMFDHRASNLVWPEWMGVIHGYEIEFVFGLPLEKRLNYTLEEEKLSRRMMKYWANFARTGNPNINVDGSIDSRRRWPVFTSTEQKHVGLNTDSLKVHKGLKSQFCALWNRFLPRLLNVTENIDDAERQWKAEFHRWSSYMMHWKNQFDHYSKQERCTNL

As for `Oc1cc(O)cc(/C=C/c2ccc(O)cc2O)c1` [OXYRESVERATROL], on Cholinesterase [1], the IC50 amounted to 2950 nM. Besides, in test [2], the inhibition result was “inactive”.

In the case of `CC(C)=CCCC1(C)C=Cc2c(O)cc(-c3cc4c(O)cc(O)cc4o3)c(CC=C(C)C)c2O1` (centres undefined), the IC50 was 1100 nM against Acetylcholinesterase and 8860 nM on Cholinesterase [1]. Further, the Ratio IC50 in test [3] came to 8.05; in test [4], 2.

As for `COc1cc(-c2cc3ccc(O)cc3o2)c(CC=C(C)C)c2c1C=CC(C)(CCC=C(C)C)O2` (centres undefined), the IC50 against Cholinesterase [1] came to 310 nM. Also, the inhibition entry in test [2] is “inactive”. For the same molecule, the Ratio IC50 on Cholinesterase [5] was less than 10.

Regarding `COc1cc(OC)c(C/C=C(\C)CCC=C(C)C)c(-c2cc3ccc(O)cc3o2)c1CC=C(C)C`, the inhibition entry (in test [2]; at Cholinesterase [6]) was “inactive” each time.

`COc1ccc2cc(-c3c(CC=C(C)C)c(O)cc(O)c3C/C=C(\C)CCC=C(C)C)oc2c1` returned an IC50 on Cholinesterase [1] of 990 nM. In test [2], the inhibition result is “inactive”. For the same molecule, at Cholinesterase [5], the Ratio IC50 is less than 10.

On to `COc1ccc2cc(-c3cc(OC)c4c(c3CC=C(C)C)OC(C)(CCC=C(C)C)C=C4)oc2c1` (centres undefined), for which the inhibition entry (in test [2]; on Cholinesterase [6]) was “inactive” each time.

Regarding `CC(C)=CCCC1(C)C=Cc2c(O)cc(-c3cc4ccc(O)cc4o3)c(CC=C(C)C)c2O1` (centres undefined), the IC50 was determined as 870 nM against Acetylcholinesterase and 14900 nM on Cholinesterase [1]. Also, the results for the Ratio IC50 in test [3] and in test [4] were 17.2 and 2, respectively.

Consider `CC(C)=CCC/C(C)=C/Cc1c(O)cc(O)c(CC=C(C)C)c1-c1cc2ccc(O)cc2o1` [LAKOOCHIN B], for which the IC50 against Acetylcholinesterase was determined as 1080 nM; at Cholinesterase [1] it was 100 nM. Also, the Ratio IC50 is 0.09 in test [3], 2 in test [4] and 37 at Cholinesterase [5].

In turn, `COc1ccc2cc(-c3cc(O)c4c(c3CC=C(C)C)OC(C)(CCC=C(C)C)C=C4)oc2c1` (centres undefined) had an IC50 on Cholinesterase [1] of 1110 nM. Besides, the inhibition result in test [2] was “inactive”. Moreover, on Cholinesterase [5], the Ratio IC50 was less than 10.

In the case of `COc1cc(O)c(C/C=C(\C)CCC=C(C)C)c(-c2cc3ccc(O)cc3o2)c1CC=C(C)C`, half-maximal inhibition against Cholinesterase [1] (IC50) was put at 510 nM. Further, the inhibition result in test [2] is “inactive”. Besides, at Cholinesterase [5], the Ratio IC50 is less than 10.

On to `COc1cc(OC)c(CC=C(C)C)c(-c2cc3ccc(O)cc3o2)c1CC=C(C)C` [LAKOOCHIN A], for which the results for the IC50 on Acetylcholinesterase and on Cholinesterase [1] were 27400 nM and 13900 nM, respectively. Also, the Ratio IC50 in test [3] came to 0.5.

In the case of `Oc1cc(O)c2c(c1)O[C@H](c1ccc(O)c(O)c1)[C@@H](O)C2`, the inhibition result (in test [2]; on Cholinesterase [6]) was “inactive” each time.

The molecule `CC(C)=CCc1c(-c2cc3ccc(O)cc3o2)cc2c3c1O[C@@]1(C)CCC([C@@H]3C1)C(C)(C)O2` (some centres undefined) displayed an IC50 on Cholinesterase [1] of 1560 nM. In addition, in test [2], the inhibition entry is “inactive”.

`COc1cc(O)c(CC=C(C)C)c(-c2cc3ccc(O)cc3o2)c1C/C=C(\C)CCC=C(C)C`: it took 630 nM to reach half-maximal inhibition against Cholinesterase [1] (IC50). For the same molecule, the inhibition result in test [2] was “inactive”. Also, on Cholinesterase [5], the Ratio IC50 is less than 10.

In the case of `COc1cc(O)c(CC=C(C)C)c(-c2cc3ccc(O)c(C/C=C(\C)CCC=C(C)C)c3o2)c1`, the figures for the IC50 on Acetylcholinesterase and on Cholinesterase [1] were 61900 nM and 47200 nM, respectively. In test [3], the Ratio IC50 was 0.76.
